Data from patent publication US7858585B2, “Hydrogels and uses thereof” (University of Delaware, priority 2005, dated 2010).

Experiments:
[1] = CD kinetics of β-sheet formation ([θ]216) after addition of DMEM; type: physicochemical; conditions: 0.5 wt %, pH 7.4, 37° C.
Experimental: (§1) To a vial containing 1 mg of peptide, 100 μL of 25 mM HEPES, pH 7.4 was added resulting in a soluble 1 wt % peptide solution. To this solution, an equal volume of DMEM supplemented with 25 mM HEPES, pH 7.4 was added to initiate self-assembly, resulting in a 0.5 wt % hydrogel. All hydrogels were prepared by this method unless otherwise stated.
CD kinetic spectra were collected on a Jasco J-810 spectropolarimeter employing 0.1 mm quartz water-jacketed cell. Peptide samples were prepared as stated above, transferred to the cell at 37° C. The ellipiticity in millidegrees were monitored at 216 nm as a function of time. Following the kinetic measurement, a wavelength scan was recorded at 37° C. using a 2 nm step size. The concentrations of MAX1 and HPL8 stock solutions were determined by absorbance (λ220=15750 cm-1.M-1) after dilution with water. Mean residue ellipticity [θ]=(θobs/10.1.c)/r, where θobs is the measured ellipticity in millidegrees, l is the length of the cell (cm), c is the concentration (M) and r is the number of residues.

[2] = system: C3H10t1/2 mesenchymal stem cells; experiment: Encapsulation of mesenchymal stem cells in hydrogel, LSCM imaging of cell distribution; type: cell-based
Text: For example, FIG. 29 contains a Laser Scanning Confocal Microscopy (LSCM) cross-sectional view of C3H10t1/2 cells encapsulated within a 0.5 wt % MAX1 hydrogel. In this micrograph, cells contained within the interior of the gel are visualized from the side of the gel (along the y-axis, depth of field is 920 μm); the top and bottom of the image is the top and bottom of the gel, respectively. Cells are encapsulated by first dissolving 1.0 wt % MAX1 in buffer at pH 7.4. To this solution, an equal volume (50 μL) of DMEM cell culture medium containing 250,000 cells is added. The salt within the DMEM electrostatically screens the lysine side chain charges resulting in peptide folding and consequent self-assembly. This simple one-to-one addition of solutions affords gels impregnated with cells. However, it is clear in FIG. 29 that the hydrogelation kinetics of MAX1 are not fast enough to entrap the cells homogeneously since a majority of the cells sediment to the bottom of the gel sample well.
(§2) C3H10t1/2 cell growth conditions are 90% DMEM supplemented with 25 mM HEPES, 10% FBS, 5 mM L-glutamine, and 50 μg/mL Gentamicin at 37° C., 5% CO2. […] Viability of encapsulated cells in 0.5 wt % hydrogels (before and after shear thinning) was assessed via a Live/Dead assay at 3 hr after encapsulation. […]

C3H10t1/2 cells = experiment: Live/Dead assay of encapsulated cells after shear thin delivery; type: cell-based; conditions: 0.5 wt % hydrogel, three hours after delivery
Experimental: Lastly, the effect of shear thin delivery on cell viability was assessed by performing a Live-Dead assay on cells that had been encapsulated into a 0.5 wt % HPL8 hydrogel and subsequently shear thin delivered to a LSCM well FIG. 33c. In this micrograph, cells contained within the interior of the gel are visualized by viewing from the top of the gel (along the z-axis, depth of field is 90 μm.). Three hours after the gel/cell construct had been shear-thin delivered, calcien AM and ethidium homodimer were added to the top of the gel, which freely diffuse through the gel network, staining live cells green and dead cells red, respectively. […] In fact, the limited degree of cell death observed in FIG. 33c is nearly identical to that of the control experiment where cells were encapsulated in HPL8 hydrogel but not shear thin delivered (FIG. 35).
as §2, with “CO2. For confocal micrographs of hydrogels impregnated with pre-labeled cells, a suspension of 1.5 e6 cells/mL were incubated in a solution of 5 μM cell tracker green in DMEM for 45 min.” for “CO2.”

[3] = Oscillatory rheology of 0.5 wt % MAX1 and HPL8 hydrogels in DMEM, pH 7.4, 37° C.; type: physicochemical
Experimental: as §1
Oscillatory rheology experiments were performed on a TA Instruments rheometer (AR 2000) with a 25 mm diameter stainless steel parallel plate geometry with a gap height of 0.5 mm. All measurements were acquired at 37° C. For dynamic time sweeps (DTS) the hydrogels were prepared as stated above and quickly transferred to the rheometer where the storage modulus (G′) was monitored as a function of time, frequency=6 rad. sec-1 and strain=0.2%. For the shear thinning experiments, a DTS was preformed for 10 min at which time 1000% stain was applied for 30 seconds to shear thin the material. After which time, the strain was decreased to 0.2% and G′ monitored as a function of time. Dynamic frequency, dynamic strain and dynamic time sweep measurements measuring both G′ and the loss modulus (G″) are provided in FIG. 36.

Substance: VKVKVKVKV^DPPTKVEVKVKV-NH2 [HPL8]
- time to completely fold and self-assemble affording gel [1]: under a minute
- distribution of cells encapsulated in gel ([2]; 0.5 wt % gel, 250K cells in DMEM, pH 7.4, 37° C.): homogeneous distribution of cells
- distribution of cells after shear thinning via syringe ([2]; 0.5 wt % gel/cell construct formed in a syringe): still retain the homogeneous cell distribution
- cell viability after shear thin delivery (C3H10t1/2 cells): majority of the cells remain viable
- G′ within the first 40 seconds ([3]; pH 7.4, 37° C.): > 100 Pa
- G′ at five minutes ([3]; phase I initial gelation): 450 Pa
- G′ within a minute ([3]; phase I initial gelation): > 100 Pa
